Experiments:
Conditions in all cases: stereoisomer not certain
[1] = RP, Waters CORTECS T3, 100 × 2.1 mm, 2.7 µm, 0.2 mL/min, estimated dead time 1.1 min; A: water + 0.1% formic acid, pH 3; B: methanol + 0.1% formic acid, pH 3; gradient (min/%B) 0/0 1/0 6/5 30/100 35/100 35.1/0 40/0
[2] = RP, Waters CORTECS T3, 100 × 2.1 mm, 2.7 µm, 0.3 mL/min, estimated dead time 0.73 min; A: water + 0.1% formic acid, pH 3; B: methanol + 0.1% formic acid, pH 3; gradient (min/%B) 0/0 5/0 25/100 30/100 30.1/0 35/0
[3] = HILIC, Thermo Scientific Accucore HILIC, 100 × 2.1 mm, 2.6 µm, 0.5 mL/min, estimated dead time 0.44 min; A: water + 0.1% formic acid + 10 mM ammonium formate, pH 3; B: 5% water + 95% acetonitrile + 0.1% formic acid + 10 mM ammonium formate, pH 3; gradient (min/%B) 0/95 5/95 20/57 25/57 30/95 40/95
[4] = RP, Waters CORTECS T3, 100 × 2.1 mm, 2.7 µm, 0.25 mL/min, estimated dead time 0.88 min; A: water + 0.1% formic acid, pH 3; B: methanol + 0.1% formic acid, pH 3; gradient (min/%B) 0/5 5/5 25/95 25.1/100 35/100 35.1/5 45/5
[5] = RP, Waters CORTECS T3, 100 × 2.1 mm, 2.7 µm, 0.3 mL/min, estimated dead time 0.73 min; A: water + 0.1% formic acid, pH 3; B: methanol + 0.1% formic acid, pH 3; gradient (min/%B) 0/0 1/0 6/5 30/100 35/100 35.1/0 40/0
[6] = HILIC, Merck SeQuant ZIC-HILIC, 150 × 2.1 mm, 5 µm, 0.75 mL/min, estimated dead time 0.44 min; A: water + 10 mM ammonium formate, pH 6; B: 5% water + 95% acetonitrile + 10 mM ammonium formate, pH 6; gradient (min/%B) 0/95 5/95 20/57 25/57 30/95 40/95
[7] = RP, Waters CORTECS T3, 100 × 2.1 mm, 2.7 µm, 0.2 mL/min, estimated dead time 1.1 min; A: water + 0.1% formic acid, pH 3; B: methanol + 0.1% formic acid, pH 3; gradient (min/%B) 0/0 1/0 6/5 30/100 35/100 35.1/0 40/0; remark: listed apart in the source
[8] = RP, Waters ACQUITY UPLC BEH C18, 100 × 2.1 mm, 1.7 µm, 0.1 mL/min, estimated dead time 2.2 min; A: water + 0.1% formic acid, pH 3; B: methanol + 0.1% formic acid, pH 3; gradient (min/%B) 0/5 5/5 25/95 25.1/100 35/100 35.1/5 45/5
[9] = RP, Waters CORTECS T3, 100 × 2.1 mm, 2.7 µm, 0.1 mL/min, estimated dead time 2.2 min; A: water + 0.1% formic acid, pH 3; B: methanol + 0.1% formic acid, pH 3; gradient (min/%B) 0/5 5/5 25/95 25.1/100 35/100 35.1/5 45/5
[10] = RP, Waters CORTECS T3, 100 × 2.1 mm, 2.7 µm, 0.2 mL/min, estimated dead time 1.1 min; A: water + 0.1% formic acid, pH 3; B: methanol + 0.1% formic acid, pH 3; gradient (min/%B) 0/5 5/5 25/95 25.1/100 35/100 35.1/5 45/5
[11] = RP, Waters CORTECS T3, 100 × 2.1 mm, 2.7 µm, 0.15 mL/min, estimated dead time 1.5 min; A: water + 0.1% formic acid, pH 3; B: methanol + 0.1% formic acid, pH 3; gradient (min/%B) 0/0 1/0 6/5 30/100 35/100 35.1/0 40/0
[12] = RP, Waters CORTECS T3, 100 × 2.1 mm, 2.7 µm, 0.25 mL/min, estimated dead time 0.88 min; A: water + 0.1% formic acid, pH 3; B: methanol + 0.1% formic acid, pH 3; gradient (min/%B) 0/0 1/0 6/5 30/100 35/100 35.1/0 40/0
[13] = RP, Waters ACQUITY UPLC BEH C18, 100 × 2.1 mm, 1.7 µm, 0.1 mL/min, estimated dead time 2.2 min; A: water + 0.1% formic acid, pH 3; B: methanol + 0.1% formic acid, pH 3; gradient (min/%B) 0/5 5/5 25/95 25.1/100 35/100 35.1/5 45/5; remark: listed apart in the source
[14] = RP, Waters CORTECS T3, 100 × 2.1 mm, 2.7 µm, 0.3 mL/min, estimated dead time 0.73 min; A: water + 0.1% formic acid, pH 3; B: methanol + 0.1% formic acid, pH 3; gradient (min/%B) 0/0 1/0 6/5 30/100 35/100 35.1/0 40/0; remark: listed apart in the source
[15] = RP, Waters CORTECS T3, 100 × 2.1 mm, 2.7 µm, 0.3 mL/min, estimated dead time 0.73 min; A: water + 0.1% formic acid, pH 3; B: methanol + 0.1% formic acid, pH 3; gradient (min/%B) 0/0 5/0 25/100 30/100 30.1/0 35/0; remark: listed apart in the source
[16] = RP, Waters ACQUITY UPLC BEH C18, 100 × 2.1 mm, 1.7 µm, 0.1 mL/min, estimated dead time 2.2 min; A: water + 0.1% formic acid, pH 3; B: methanol + 0.1% formic acid, pH 3; gradient (min/%B) 0/5 5/5 25/100 30/100 30.1/5 35/5
[17] = RP, Waters ACQUITY UPLC BEH C18, 100 × 2.1 mm, 1.7 µm, 0.1 mL/min, estimated dead time 2.2 min; A: water + 0.1% formic acid, pH 3; B: methanol + 0.1% formic acid, pH 3; gradient (min/%B) 0/5 5/5 25/95 25.1/100 35/100 35.1/5 45/5; remark: listed apart in the source

Compound	LC retention time [1]	LC retention time [2]	LC retention time [3]	LC retention time [4]	LC retention time [5]	LC retention time [6]	LC retention time [7]	LC retention time [8]	LC retention time [9]	LC retention time [10]	LC retention time [11]	LC retention time [12]	LC retention time [13]	LC retention time [14]	LC retention time [15]	LC retention time [16]	LC retention time [17]
N[C@@H](Cc1cc(I)c(Oc2ccc(O)cc2)c(I)c1)C(=O)O [3,5-DIIODO-L-THYRONINE]	19.2 min	16.1 min	8.63 min	16.4 min	18 min	8.69 min	19.3 min	20.2 min	19.9 min	22.3 min	20.4 min	18.6 min	20.2 min	18 min	16.1 min	19.7 min	
CC(C)(CO)C(O)C(=O)NCCC(=O)O [D-PANTOTHENIC ACID]	9.6 min	8.6 min	4.93 min	6.32 min	8.1 min	10.5 min	9.51 min		11.2 min	13 min	10.9 min	8.69 min		7.94 min	8.53 min	11.5 min	11.6 min
CC1NC(=O)NC1CCCCCC(=O)O (configuration not stated) [DETHIOBIOTIN]	15.7 min	13.2 min		13.2 min	14.3 min	3.19 min	15.7 min		17.1 min	19 min	16.9 min	14.9 min		14.3 min	13.2 min	16.9 min	17.2 min
Cc1cc2nc3c(=O)[nH]c(=O)nc-3n(CC(O)C(O)C(O)CO)c2cc1C (configuration not stated) [RIBOFLAVIN]	14.7 min	12.5 min		12.4 min	13.5 min		14.7 min	15.7 min	16 min	17.7 min	15.8 min	14 min	15.7 min	13.5 min	12.5 min	15.5 min	15.7 min
O=c1[nH]c(=O)c2[nH]cnc2[nH]1 [XANTHINE]	3.32 min	2.39 min	1.92 min	1.85 min	2.39 min	5.7 min	3.29 min	2.66 min	4.3 min		4.65 min	2.63 min	2.72 min	2.17 min	2.27 min		2.82 min

Further lines, results first:

LC retention time [1]	LC retention time [2]	LC retention time [3]	LC retention time [4]	LC retention time [5]	LC retention time [6]	LC retention time [7]	LC retention time [8]	LC retention time [9]	LC retention time [10]	LC retention time [11]	LC retention time [12]	LC retention time [13]	LC retention time [14]	LC retention time [15]	LC retention time [16]	LC retention time [17]	Compound
12.3 min	10.5 min	6.71 min	9.94 min	10.8 min		12.2 min	14.3 min	14.2 min	15.8 min	13.6 min	11.4 min	14.3 min	10.7 min	10.5 min	14.2 min		O=C(O)c1cc(=O)c2ccccc2[nH]1 [4-HYDROXY-2-QUINOLINECARBOXYLIC ACID]
15.1 min	12.8 min	0.92 min	12.6 min	13.6 min	0.64 min	15 min	17.3 min	17 min	18.8 min	16.5 min	14.2 min	17.3 min	13.6 min	12.7 min	16.9 min	17.2 min	CC(C)=CCNc1ncnc2nc[nH]c12 [N6-(DELTA2-ISOPENTENYL)-ADENINE]
15.7 min	13.2 min		13.2 min	14.2 min	8.49 min	15.7 min		17.3 min	19.2 min	17 min	14.8 min		14.2 min	13.2 min	17.3 min	17.6 min	CC(=O)N[C@H](Cc1c[nH]c2ccccc12)C(=O)O [N-ACETYL-D-TRYPTOPHAN]
	3.11 min	3.39 min	2.11 min	3.11 min	5.74 min	4.26 min		4.93 min	8.07 min	5.95 min		2.72 min	2.75 min	2.96 min	4.78 min	4.74 min	Nc1nc2nccnc2c(=O)[nH]1 [PTERIN]
12.1 min	10.3 min	7.89 min	9.71 min	10.5 min	9.77 min	12 min	13.9 min	13.9 min	15.5 min	13.4 min	11.1 min	13.8 min	10.5 min	10.3 min	13.8 min	14 min	O=C(O)c1cc(=O)c2cccc(O)c2[nH]1 [XANTHURENIC ACID]
